Test results published in PMC10247784, “Physiological activation of human and mouse bitter taste receptors by bile acids” (Communications Biology, 2023).

Target: T1, mouse Tas2r108 (Mus musculus, UniProt Q9JKT3)
T1 construct: expressed in transfected cells; host or cells: HEK293T-Gα16gust44
T1 sequence (Q9JKT3 1-297): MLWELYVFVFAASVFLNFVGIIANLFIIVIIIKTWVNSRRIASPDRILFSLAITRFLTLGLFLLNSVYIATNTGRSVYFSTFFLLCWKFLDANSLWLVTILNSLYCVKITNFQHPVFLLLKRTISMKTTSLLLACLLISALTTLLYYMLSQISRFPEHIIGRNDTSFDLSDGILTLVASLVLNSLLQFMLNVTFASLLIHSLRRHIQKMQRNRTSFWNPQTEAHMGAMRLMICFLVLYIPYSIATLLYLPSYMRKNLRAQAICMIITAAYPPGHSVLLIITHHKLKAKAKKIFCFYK
Experiment: Calcium imaging assay (FLIPR), HEK293T-Gα16gust44 cells transfected with mouse Tas2r108
Type: cell-based
Protocol: This set of bile acids was chosen because of their commercial availability in high purities, their diversity within the class of bile acids and their previous detection and quantitation in human blood. Stock solutions were prepared in DMSO.
As basal growth medium for the HEK293T-Gα16gust44 cell line[17],[59] served Dulbecco’s modified eagle medium (DMEM) (Thermo Fisher Scientific, Darmstadt, Germany) supplemented with 10 % fetal bovine serum (Sigma-Aldrich, Steinheim, Germany), 2 mM L-glutamine (Sigma-Aldrich, Steinheim, Germany), 100 units/ml penicillin (Sigma Aldrich, Steinheim, Germany) and 100 µg/ml streptomycin (Sigma Aldrich, Steinheim, Germany). Growth conditions were 37 °C, 5 % CO2 and saturated air-humidity[60].
HEK293T-Gα16gust44 cells were seeded on poly-D-lysine (10 µg/ml) coated 96-well plates to reach a confluence of 40-60 % the next day. For transient transfection 150 ng of plasmid DNA containing the receptor of interest and 0.3 µl lipofectamine 2000 (Thermo Fisher Scientific, Darmstadt, Germany) per well were used and transfection took place according to the manual of lipofectamine 2000. […] The empty vector DNA (mock) was transfected as negative control[14],[41].
Cells were loaded using the calcium-sensitive fluorescent dye Fluo-4-AM (Abcam, Cambridge, Great Britain) in the presence of 2.5 mM probenecid (Sigma-Aldrich, Steinheim, Germany) the day after transfection[13],[41]. 1 h after loading, cells were washed with C1 buffer using a BioTek Cell Washer, incubated in the dark for half an hour and washed again. For automated agonist application and measurement of fluorescence changes, a FLIPR^TETRA device (Molecular Devices, San José, United States) was used. Viability of cells was tested by application of 100 nM Somatostatin 14 (Bachem, Bubendorf, Switzerland)[42].
Measured data were negative control corrected by subtracting the signal of the mock-transfected cells and exported to Microsoft Excel using the FLIPR software ScreenWorks 4.2. In Microsoft Excel software, standardization of maximum fluorescence intensities to the basal fluorescence and normalization to the buffer-only control was done to calculate the relative fluorescence changes (ΔF/F).
Initial screening experiments performed in duplicate wells were confirmed by at least one replication and representative traces were selected for display. All dose-response relationships were determined by three independent experiments (biological replicates) performed in duplicates (technical replicates). Threshold concentrations, defined as lowest substance concentrations leading to statistically significant elevated fluorescence changes in receptor-transfected cells compared with empty vector-transfected cells, were determined using SigmaPlot with Student’s t-test to evaluate statistical significance (p < 0.01).

SMILES: C[C@H](CCC(=O)O)[C@H]1CC[C@H]2[C@@H]3CC[C@@H]4C[C@H](O)CC[C@]4(C)[C@H]3C[C@H](O)[C@]12C [Deoxycholic Acid, deoxycholic acid]
- RLU (Time 0 s): 0 RLU
- RLU (Time 2 s): 10.4901 RLU
- RLU (Time 4 s): 7.695 RLU
- RLU (Time 6 s): 13.3996 RLU
- RLU (Time 8 s): 21.0752 RLU
- RLU (Time 12 s): 15.5762 RLU
- RLU (Time 14 s): 3.43 RLU
- RLU (Time 16 s): -9.281 RLU
- RLU (Time 18 s): 0.8467 RLU
- RLU (Time 137.562 s): 460.71 RLU
- RLU (Time 143.562 s): 496.814 RLU
- RLU (Time 149.562 s): 503.436 RLU
- RLU (Time 155.562 s): 499.263 RLU
- RLU (Time 161.562 s): 506.022 RLU
- RLU (Time 167.562 s): 509.176 RLU
- RLU (Time 173.562 s): 514.108 RLU
- RLU (Time 179.562 s): 522.581 RLU
- RLU (Time 185.562 s): 531.86 RLU
- RLU (Time 191.562 s): 528.694 RLU
- RLU (Time 197.562 s): 533.421 RLU
- RLU (Time 203.562 s): 538.761 RLU
- RLU (Time 209.562 s): 521.511 RLU
- RLU (Time 215.562 s): 533.378 RLU
- RLU (Time 221.562 s): 492.546 RLU
- RLU (Time 227.562 s): 477.486 RLU
- RLU (Time 233.562 s): 488.911 RLU
- RLU (Time 239.562 s): 493.745 RLU
- RLU (Time 245.562 s): 495.953 RLU
- RLU (Time 293.562 s): 458.186 RLU
- RLU (Time 299.562 s): 441.037 RLU
- RLU (Time 305.562 s): 416.756 RLU
- RLU (Time 311.562 s): 430.852 RLU
- RLU (Time 317.562 s): 450.794 RLU
- RLU (Time 323.562 s): 427.048 RLU
- RLU (Time 329.562 s): 431.797 RLU
- RLU (Time 335.562 s): 432.3 RLU
- RLU (Time 341.562 s): 422.32 RLU
- RLU (Time 347.562 s): 429.258 RLU
- RLU (Time 353.562 s): 427.233 RLU
- RLU (Time 359.562 s): 399.693 RLU
- Activation threshold concentration Tas2r108 (p < 0.01 vs empty vector): 10 µM
- RLU (time 18.797 s): 15.4 RLU
- RLU (time 20.797 s): -4.333 RLU
- RLU (time 22.797 s): -28.7534 RLU
- RLU (time 24.797 s): -22.8768 RLU
- RLU (time 26.797 s): 16.5718 RLU
- RLU (time 28.797 s): 18.9437 RLU
- RLU (time 30.797 s): 58.8166 RLU
- RLU (time 32.797 s): 83.6402 RLU
- RLU (time 34.797 s): 79.9664 RLU
- RLU (time 36.797 s): 112.495 RLU
- RLU (time 38.797 s): 144 RLU
- RLU (time 40.797 s): 169.562 RLU
- RLU (time 42.797 s): 181.196 RLU
- RLU (time 44.797 s): 204.676 RLU
- RLU (time 46.797 s): 240.06 RLU
- RLU (time 48.797 s): 220.167 RLU
- RLU (time 50.797 s): 217.063 RLU
- RLU (time 52.797 s): 250.29 RLU
- RLU (time 54.797 s): 263.514 RLU
- RLU (time 56.797 s): 298.678 RLU
- RLU (time 58.797 s): 286.664 RLU
- RLU (time 60.797 s): 326.636 RLU
- RLU (time 62.797 s): 300.232 RLU
- RLU (time 64.797 s): 322.977 RLU
- RLU (time 66.797 s): 299.438 RLU
- RLU (time 68.797 s): 333.279 RLU
- RLU (time 70.797 s): 356.797 RLU
- RLU (time 72.797 s): 351.722 RLU
- RLU (time 74.797 s): 354.974 RLU
- RLU (time 76.797 s): 350.201 RLU
- RLU (time 78.797 s): 373.335 RLU
- RLU (time 80.797 s): 363.865 RLU
- RLU (time 82.797 s): 378.202 RLU
- RLU (time 84.797 s): 377.793 RLU
- RLU (time 86.797 s): 374.495 RLU
- RLU (time 88.797 s): 427.432 RLU
- RLU (time 90.797 s): 391.234 RLU
- RLU (time 92.797 s): 431.574 RLU
- RLU (time 94.797 s): 429.345 RLU
- RLU (time 96.797 s): 437.253 RLU
- RLU (time 98.797 s): 431.746 RLU
- RLU (time 100.797 s): 440.351 RLU
- RLU (time 102.797 s): 434.297 RLU
- RLU (time 104.797 s): 432.91 RLU
- RLU (time 106.797 s): 451.262 RLU
- RLU (time 108.797 s): 460.201 RLU
- RLU (time 110.797 s): 466.157 RLU
- RLU (time 112.797 s): 486.092 RLU
- RLU (time 114.797 s): 411.046 RLU
- RLU (time 116.797 s): 482.073 RLU
- RLU (time 118.797 s): 468.374 RLU
- RLU (time 120.797 s): 468.931 RLU
- RLU (time 122.797 s): 478.657 RLU
- RLU (time 124.797 s): 472.922 RLU
- RLU (time 126.797 s): 476.391 RLU
- RLU (time 128.797 s): 502.505 RLU
- RLU (time 130.797 s): 473.229 RLU
- RLU (time 132.797 s): 511.515 RLU
- RLU (time 134.797 s): 493.882 RLU
- RLU (time 136.797 s): 440.117 RLU
